Experimental data reported in patent publication US20060058320A1, “[1,2,4] Triazolo[1,5-c]pyrimidine derivatives” (KYOWA HAKKO KOGYO CO., LTD., priority 2002, published 2006).
Where a name gives a salt, the structure may show the parent alone. Read-outs that look alike come from different tables or passages of the source.

Test system: CGS 21680-induced catalepsy
Experiment: Activity on CGS 21680-induced catalepsy
Format: in vivo, mice
Settings: for inhibition in vivo at 10 mg/kg: Mus musculus, po, read-out: Remission ratio (%); for Total score: total catalepsy score of 10 mice (maximum 50 points; 40 points or less = positive), one hour after administration; for Number of animals showing remission: cases with catalepsy score of 4 points or less in 10 cases
Protocol: Parkinson's disease is a motor disorder based on degeneration and cell death of the nigrostriatal dopaminergic neurons. When CGS 21680 (adenosine A2A receptor agonist) is administered into the intracerebral ventricle, the inhibitory synaptic transmission of GABA in the medium sized spiny neurons in the corpus striatum is inhibited directly via the adenosine A2A receptor [Journal of Neuroscience, vol. 16, p. 605 (1996)]. Accordingly, it is concidered that the adenosine A2A receptor agonists positively regulate the output of the GABAergic neurons from the corpus striatum to the globus pallidus lateralis, and, as a result, catalepsy is induced by the administration of CGS 21680.
The test was carried out using ten 5-week age male ddY mice (22-25 g in body weight, Japan SLC) per group. CGS 21680 (produced by RBI Co) was dissolved in physiological saline (produced by Otsuka Pharmaceutical Co., Ltd.), and 10 μg/20 μL of the solution was injected into mouse intracerebral ventricle. Each test compound was used by suspending it in distilled water containing 0.3% of polyoxylene (20) sorbitan monooleate (referred to as “Tween 80” hereinafter) (produced by Otsuka Pharmaceutical Co., Ltd.). The suspension containing each test compound or a solution containing no test Compound (distilled water containing 0.3% of Tween 80; used as a control) was orally administered (0.1 mL per 10 g of mouse body weight) 30 minutes before the injection of CGS 21680 into the intracerebral ventricle. One hour after the administration of the each test compound, only forelimbs or only hindlimbs of each mouse were laid on a vertically arranged stand made of acryl and having a size of 4.5 cm in height and 1.0 cm in width to measure catalepsy symptoms. All of the test compounds were administered orally in a dose of 10 mg/kg.
The criteria of the catalepsy score are shown below.
The effect was decided by a total catalepsy score of 10 mice in one group (the maximum score: 50 points). When the total score was 40 points or less, the activity of the compounds was decided positive. The number of the animals showing remission of catalepsy was expressed by the number of cases showing a catalepsy score of 4 points or less in 10 cases. The catalepsy remission ratio was expressed as the percentage of the total score in the test compound-administered group to the total score in the control group.

[1] = from total score of test group and control group, 10 mg/kg orally

| SMILES | inhibition in vivo at 10 mg/kg [1] | Total score (10 mg/kg orally) | inhibition in vivo at 10 mg/kg | Number of animals showing remission (10 mg/kg orally) | Remission ratio (%) [1] |
| --- | --- | --- | --- | --- | --- |
| Nc1nc(C(=O)NCCCN2CCCC2=O)cc2nc(-c3ccco3)nn12 [Compound 92] | 82% | 9 | – | – | – |
| CCN(Cc1ccncc1)C(=O)c1cc2nc(-c3ccco3)nn2c(N)n1 [Compound 102, 5-Amino-2-(2-furyl)[1,2,4]triazolo[1,5-c]pyrimidine-7-carboxylic acid [N-ethyl-N-(4-pyridylmethyl)]amide] | 92% | 4 | – | – | – |
| CCN(Cc1cccnc1Cl)C(=O)c1cc2nc(-c3ccco3)nn2c(N)n1 [Compound 129, 5-Amino-2-(2-furyl)[1,2,4]triazolo[1,5-c]pyrimidine-7-carboxylic acid [N-ethyl-N-(2-chloropyridin-3-ylmethyl)]-amide] | 90% | 5 | – | – | – |
| Nc1nc(C2=CCN(CCO)CC2)cc2nc(-c3ccco3)nn12 [Compound 75, 5-Amino-2-(2-furyl)-7-[1-(2-hydroxyethyl)-1,2,3,6-tetra-hydropyridin-4-yl][1,2,4]triazolo[1,5-c]pyrimidine] | – | 2 | 96% | – | – |
| Nc1nc(C(=O)N2CCC(Cc3ccccc3)CC2)cc2nc(-c3ccco3)nn12 [Compound 158, 5-Amino-2-(2-furyl)[1,2,4]triazolo[1,5-c]pyrimidin-7-yl 4-benzylpiperidino ketone] | – | 7 | 86% | – | – |
| Cc1ccc(CN(C)C(=O)c2cc3nc(-c4ccco4)nn3c(N)n2)cn1 [Compound 130, 5-Amino-2-(2-furyl)[1,2,4]triazolo[1,5-c]pyrimidine-7-carboxylic acid [N-methyl-N-(6-methylpyridin-3-ylmethyl)]-amide] | 70% | 15 | – | – | – |
| COc1ccc(CN(C)C(=O)c2cc3nc(-c4ccco4)nn3c(N)n2)cc1OC [Compound 81, 5-Amino-2-(2-furyl)[1,2,4]triazolo[1,5-c]pyrimidine-7-carboxylic acid [N-(3,4-dimethoxybenzyl)-N-methyl]amide] | 96% | 2 | – | – | – |
| COc1ccc(CNC(=O)c2cc3nc(-c4ccco4)nn3c(N)n2)cc1OC [Compound 80, 5-Amino-2-(2-furyl)[1,2,4]triazolo[1,5-c]pyrimidine-7-carboxylic acid (3,4-dimethoxybenzyl)amide] | 88% | 6 | – | – | – |
| COc1ccc(CN(C)Cc2cc3nc(-c4ccco4)nn3c(N)n2)cc1OC [Compound 35, 5-Amino-7-[(N-methyl-3,4-dimethoxybenzylamino)methyl]-2-(2-furyl)[1,2,4]triazolo[1,5-c]pyrimidine monohydrochloride] | – | 5 | 90% | – | – |
| COCCN(C)C(=O)c1cc2nc(-c3ccco3)nn2c(N)n1 [Compound 87, 5-Amino-2-(2-furyl)[1,2,4]triazolo[1,5-c]pyrimidine-7-carboxylic acid [N-(2-methoxyethyl)-N-methyl]amide] | 82% | 9 | – | – | – |
| COC[C@H]1CCCN1C(=O)c1cc2nc(-c3ccco3)nn2c(N)n1 [Compound 149, (2R)-(2-Methoxymethyl)pyrrolidinyl 5-amino-2-(2-furyl)-7-[1,2,4]triazolo[1,5-c]pyrimidin-7-yl ketone] | – | 15 | – | 7 | 70% |
| Nc1nc(-c2ccc(CO)cn2)cc2nc(-c3ccco3)nn12 [Compound 62, 5-Amino-2-(2-furyl)-7-(3-hydroxymethylpyridin-6-yl)[1,2,4]-triazolo[1,5-c]pyrimidine] | 80% | 10 | – | – | – |
| Nc1nc(C2=CCN(Cc3csnn3)CC2)cc2nc(-c3ccco3)nn12 [Compound 72, 5-Amino-2-(2-furyl)-7-[1-(1,2,3-thiadiazol-4-yl)methyl-1,2,3,6-tetrahydropyridin-4-yl][1,2,4]triazolo[1,5-c]-pyrimidine] | – | 0 | 100% | – | – |
| COC1CCN(C(=O)c2cc3nc(-c4ccco4)nn3c(N)n2)CC1 [Compound 144, 5-Amino-2-(2-furyl)[1,2,4]triazolo[1,5-c]pyrimidin-7-yl 4-methoxypiperidino ketone] | 84% | 7 | – | – | – |
| CN(C(=O)c1cc2nc(-c3ccco3)nn2c(N)n1)c1ccc(Cl)nc1 [Compound 118, 5-Amino-2-(2-furyl)[1,2,4]triazolo[1,5-c]pyrimidine-7-carboxylic acid [N-(6-chloropyridin-3-yl)-N-methyl]amide] | 94% | 3 | – | – | – |
| Nc1nc(C(=O)N2CCC(O)(c3ccccc3)CC2)cc2nc(-c3ccco3)nn12 [Compound 150, 5-Amino-2-(2-furyl)[1,2,4]triazolo[1,5-c]pyrimidin-7-yl (4-hydroxy-4-phenyl)piperidino ketone] | – | 11 | – | 8 | 76% |
| Nc1nc(CO)cc2nc(-c3ccco3)nn12 [Compound 22, 5-Amino-2-(2-furyl)-7-hydroxymethyl[1,2,4]triazolo[1,5-c]-pyrimidine] | 84% | 8 | – | – | – |
| Nc1nc(C(=O)NCc2ccccc2)cc2nc(-c3ccco3)nn12 [Compound 91, 5-Amino-2-(2-furyl)[1,2,4]triazolo[1,5-c]pyrimidine-7-carboxylic acid benzylamide] | 94% | 3 | – | – | – |
| CN(CCc1cccnc1)C(=O)c1cc2nc(-c3ccco3)nn2c(N)n1 [Compound 138, 5-Amino-2-(2-furyl)[1,2,4]triazolo[1,5-c]pyrimidine-7-carboxylic acid {N-methyl-N-[2-(3-pyridyl)ethyl]}amide] | 78% | 11 | – | – | – |
| Nc1nc(-c2cccnc2)cc2nc(-c3ccco3)nn12 [Compound 53, 5-Amino-2-(2-furyl)-7-(3-pyridyl) [1,2,4]triazolo[1,5-c]-pyrimidine] | 84% | 8 | – | – | – |
| CN(Cc1cccnc1)C(=O)c1cc2nc(-c3ccco3)nn2c(N)n1 [Compound 105, 5-Amino-2-(2-furyl)[1,2,4]triazolo[1,5-c]pyrimidine-7-carboxylic acid [N-methyl-N-(3-pyridylmethyl)]amide] | 82% | 9 | – | – | – |
| CN(Cc1ccc(F)cc1)C(=O)c1cc2nc(-c3ccco3)nn2c(N)n1 [Compound 121, 5-Amino-2-(2-furyl)[1,2,4]triazolo[1,5-c]pyrimidine-7-carboxylic acid [N-(4-fluorobenzyl)-N-methyl]amide monohydrochloride] | 72% | 14 | – | – | – |
| CCOC1(c2cc3nc(-c4ccco4)nn3c(N)n2)CC1 [Compound 26, 5-Amino-7-(1-ethoxycyclopropyl)-2-(2-furyl)[1,2,4]triazolo [1,5-c]pyrimidine] | 82% | 9 | – | – | – |
| Nc1nc(-c2cc[nH]n2)cc2nc(-c3ccco3)nn12 [Compound 60, 5-Amino-2-(2-furyl)-7-(1H-pyrazol-3-yl)[1,2,4]triazolo[1,5-c]pyrimidine] | 98% | 1 | – | – | – |
| CC(C)N(Cc1ccccc1)C(=O)c1cc2nc(-c3ccco3)nn2c(N)n1 [Compound 100, 5-Amino-2-(2-furyl)[1,2,4]triazolo[1,5-c]pyrimidine-7-carboxylic acid (N-benzyl-N-isopropyl)amide] | – | 15 | – | 8 | 64% |
| Nc1nc(C(=O)NCCc2ccccn2)cc2nc(-c3ccco3)nn12 [Compound 84, 5-Amino-2-(2-furyl) [1,2,4]triazolo[1,5-c]pyrimidine-7-carboxylic acid [2-(2-pyridyl)ethyl]amide] | 92% | 4 | – | – | – |
| COCCNC(=O)c1cc2nc(-c3ccco3)nn2c(N)n1 [Compound 86, 5-Amino-2-(2-furyl)[1,2,4]triazolo[1,5-c]pyrimidine-7-carboxylic acid (2-methoxyethyl)amide] | 100% | 0 | – | – | – |
| CC(C)(O)c1ccc(-c2cc3nc(-c4ccco4)nn3c(N)n2)cc1 [Compound 63, 5-Amino-2-(2-furyl)-7-[4-(1-hydroxy-1-methylethyl)phenyl]-[1,2,4]triazolo[1,5-c]pyrimidine] | 98% | 1 | – | – | – |
